From patent publication US20190276495A1 (priority 2016, published 2019) come the findings set out here.

Test [1] relates to Balb/c mice. The note with it: mouse, in vivo, ip.
The test system of test [2] is BALB/cAJc mice. The note with it: mouse, in vivo, iv.

Core-[PEG-IKKADGSECLP]4 [Ebola 1 MAP4]: in test [1], the “IgG (anti-MAP antibody in sera)” value is recorded as “no increase”; the “IgM antibody titer against Ebola 1” value is “one mouse showed an evident increase, and two mice showed mild increases”. Besides, the “IgG (anti-MAP antibody in sera)” value in test [2] was “increase in IgG was seen only in the 100-μg administration group”.
On to Core-[PEG-FPRCRYVHK]4 [Ebola 2 MAP4], for which, in test [2], the “IgG (anti-MAP antibody in sera)” value was “no increase” and the “IgM (anti-MAP antibody in sera)” value is listed as “no increase”.
